Test [1] deals with blood coagulation function. Description: TT in rabbits, intravenous maintenance administration. The test is classed as in vivo, rabbit. The procedure:
(§1) 2. Grouping and administration: 10 rabbits were randomly divided into 3 groups, 2 to 3 rabbits per group. 1) Sham operation group (NS): Intravenous injection of the same volume of physiological saline, with the same operation method as above; 2) polypeptide 2 administration group: 8.0 mg/kg+20.0 mg/kg/h; 3) positive control enoxaparin group: 50 U/kg+150 U/kg/h. According to the body weight in kilograms of the rabbits, the first dose of the drug to be tested was dissolved in 2 mL of physiological saline for single bolus injection. The maintaining dose was dissolved in 9 ml of physiological saline, and placed in a double-channel micro-injection pump, which was dripped off within 90 minutes at a dripping speed of […]. The sham operation group was administered with the same volume of physiological saline.
(§2) 4.2 Determination of blood coagulation function: Blood samples were taken and the blood function (PT, APTT) was determined at 0 min before administration, at points of 30 min, 60 min, 90 min after administration, and at points of 60 min, 120 min and 180 min after termination of administration, using a platelet-aggregation coagulation factor analyzer. Blood samples were centrifuged at 3510 rpm for 8 min to obtain platelet poor plasma (PPP). Reagent reconstruction and preservation were performed according to the operation requirements of the kit. Immediately after each blood sample was placed into a test cup and then added with PT, TT and APTT reagents, the test was started. After the test was completed, results were recorded.

For test [2], the system named is blood coagulation function. The experiment in a line: PT in rabbits, intravenous maintenance administration. Format: in vivo, rabbit. The procedure:
as §1, §2

The test system of test [3] is blood coagulation function. Description: APTT in rabbits, intravenous maintenance administration. Format: in vivo, rabbit. The procedure: as §1, §2
Test [4] relates to FeCl3-induced femoral artery thrombosis. The experiment in a line: FeCl3-induced femoral artery thrombosis in rabbits, intravenous maintenance administration. The test is classed as in vivo, rabbit. The procedure: as §1
3.1 Surgery preparation of rabbits: Rabbits were sent to the laboratory for accommodation for one day, and then screened at first. Blood samples were taken from arteries within ears, which were subjected to blood routine analysis and APTT assay, and the rabbits with normal blood hemateikon and APTT between 16s to 28s were selected for experiments. The rabbits to be tested were fasted with free access to water for the night before the experiment. The rabbits were anesthetized with intravenous injection of 3% sodium pentobarbital solution at 1 ml/kg, fixed in the supine position, and then, the common carotid artery at one side, external jugular vein, femoral artery at one side, femoral vein, and forelimb vein at one side were isolated. The forelimb vein was subjected to intubation for administration; the left femoral vein was subjected to intubation for blood collection to determine the platelet aggregation rate; the femoral artery was used for the establishment of an arterial thrombosis model; the common carotid artery and external jugular vein were used for the establishment of an arterial and venous bypass thrombosis model.
3.2 Arterial thrombosis (AT) model: A small piece of a filter paper (1 cm×1.5 cm) absorbed with 50% FeCl3 solution was applied onto the right femoral artery while administration, below which a small piece of a plastic film (2.5 cm×2.0 cm) was placed to protect surrounding tissues. After 10 minutes, the filter paper was removed, and then, the blood vessels and local tissues were rinsed with warm physiological saline, and the covered blood vessels were cut off. The thrombus which attached to the blood vessel walls was peeled off to be weighed on a tin foil for its wet weight, and then kept overnight at room temperature and weighed for its dry weight.
3.3 Experimental Procedures: The femoral arteries in the […] and both sides in the rabbits were isolated and stabilized for 10 minutes before the administration was started. An AT model was established by covering the femoral artery with a 50% FeCl3 filter paper while administration, and the filter paper was removed after 15 minutes. Observation was continued for 120 min after administration until the experiment was completed.
4.4 Thrombus weight: After the experiment was completed, the segment of the blood vessels in which there had been thrombus formation was cut off, weighed for the wet weight, and then kept overnight at room temperature and weighed for the dry weight. The thrombosis inhibitory rate was calculated with a calculation equation as follows: […]

Test [5] has as its system thrombin-induced pulmonary embolism. Description: Thrombin-induced pulmonary embolism in mice. The test is classed as in vivo, mouse. As to conditions: thrombin 1500 u/kg, tail iv 250 IU/kg.
Setting [6] is: iv 50 U + 150 U, Administration 30 min.
Setting [7] is: iv 50 U + 150 U, Administration 60 min.
The mark [8] stands for this setting: iv 50 U + 150 U, Administration 90 min.
The mark [9] stands for this setting: iv 50 U + 150 U, Before administration.
Where [10] appears, read: iv 50 U + 150 U, Termination 60 min.
[11] abbreviates: iv 50 U + 150 U, Termination 120 min.
The mark [12] stands for this setting: iv 50 U + 150 U, Termination 180 min.
The mark [13] stands for this setting: iv 8.0 + 20.0 (mg/kg+mg/kg/h), Before administration.
Setting [14] is: iv 8.0 + 20.0 (mg/kg+mg/kg/h), Termination 120 min.
[15] abbreviates: iv 8.0 + 20.0 (mg/kg+mg/kg/h), Termination 180 min.
The mark [16] stands for this setting: iv 8.0 + 20.0 (mg/kg+mg/kg/h), Administration 30 min.
[17] abbreviates: iv 8.0 + 20.0 (mg/kg+mg/kg/h), Administration 60 min.
The mark [18] stands for this setting: iv 8.0 + 20.0 (mg/kg+mg/kg/h), Administration 90 min.
[19] abbreviates: iv 8.0 + 20.0 (mg/kg+mg/kg/h), Termination 60 min.
[20] abbreviates: iv 8.0 + 20.0 (mg/kg + mg/kg/h).

Marks after values point to notes of the source that are not given here.

Take Enoxaparin: the TT in test [1] (setting [6]) is more than 180 s; in test [1] (setting [7]), more than 180 s; in test [1] (setting [8]) it was 18.9 S; in test [1] (setting [9]) it was 20.5 S; in test [1] (setting [10]), 21.0 S; in test [1] (setting [11]) it was 29.0 S. The TT in test [1] (setting [12]) turned out to be 24.0 S. Further, the PT in test [2] (setting [6]) is listed as 10.4 S; in test [2] (setting [7]), 10.4 S; in test [2] (setting [8]), 11.3 S; in test [2] (setting [9]), 9.4 S; in test [2] (setting [10]), 8.2 S; in test [2] (setting [11]) it was 8.1 S. In test [2] (setting [12]), the PT is reported as 7.6 S. Moreover, the APTT in test [3] (setting [6]) is recorded as 32.4 S; in test [3] (setting [7]), 36.2 S; in test [3] (setting [8]), 38.3 S; in test [3] (setting [9]), 25.7 S; in test [3] (setting [10]), 30.5 S; in test [3] (setting [11]), 62.1 S. In addition, in test [3] (setting [12]), the APTT worked out at 41.6 S. Moreover, the “Thrombus inhibitory rate Dry weight” value in test [4] (iv 50 U + 150 U (U/kg+U/kg/h)) stood at 10 ± 4.2%. In addition, the “Thrombus inhibitory rate Wet weight” value in test [4] (iv 50 U + 150 U (U/kg+U/kg/h)) came out at 40 ± 5.7%. Moreover, the “Thrombus weight Dry weight” value in test [4] (iv 50 U + 150 U (U/kg+U/kg/h)) turned out to be 2.3 ± 2.1 mg. Besides, the “Thrombus weight Wet weight” value in test [4] (iv 50 U + 150 U (U/kg+U/kg/h)) came out at 3.9 ± 4.0 mg. For the same substance, the Number of platelets in test [5] was 459.83 ± 49.66 ×10^9. Besides, in test [5] (within 15 min), the Mortality rate was 10**^## %.

Take “D-Phe Pro Arg Pro Gly Gly Gly Gly Asn Gly Asp Phe Glu Glu Ile Pro Glu Glu Tyr Leu Glu Ala Ala Ala Lys Cys Har Gly Asp Trp Pro Cys [Polypeptide 2]”: the TT in test [1] (setting [13]) amounted to 26.8 ± 15.5 S; in test [1] (setting [14]), 150.6 ± 3.5 S; in test [1] (setting [15]), 28.2 ± 1.9 S. Besides, the PT in test [2] (setting [16]) was found to be 12.7 ± 0.5 S; in test [2] (setting [17]), 9.4 ± 2.0 S; in test [2] (setting [18]), 11.6 ± 1.3 S; in test [2] (setting [13]), 7.7 ± 1.8 S; in test [2] (setting [19]), 7.7 ± 0.0 S; in test [2] (setting [14]), 7.1 ± 1.8 S. Besides, the PT in test [2] (setting [15]) was 7.4 ± 1.3 S. For the same substance, the APTT in test [3] (setting [16]) came out at 38.0 ± 2.3 S; in test [3] (setting [17]), 32.5 ± 1.0 S; in test [3] (setting [18]) it was 34.1 ± 3.7 S; in test [3] (setting [13]) it was 22.7 ± 1.7 S; in test [3] (setting [19]) it was 35.7 ± 14.0 S; in test [3] (setting [14]), 33.2 ± 2.7 S. Moreover, the APTT in test [3] (setting [15]) came out at 23.3 ± 1.6 S. Further, the “Thrombus inhibitory rate Dry weight” value in test [4] (setting [20]) is listed as 84.9 ± 2.3%. For the same substance, in test [4] (setting [20]), the “Thrombus inhibitory rate Wet weight” value turned out to be 75.6 ± 3.8%. Also, the “Thrombus weight Dry weight” value in test [4] (setting [20]) worked out at 3.2 ± 2.0 mg. For the same substance, the “Thrombus weight Wet weight” value in test [4] (setting [20]) is given as 14.2 ± 10.2 mg.

For the origin of these results see US11643439B2, “Multi-target compound with anticoagulation and antiplatelet activity, preparation method therefor, and use thereof” (SHAANXI MICOT TECHNOLOGY LIMITED COMPANY, priority 2015, dated 2023).
